“Also recorded” adds a separate entry of the source.
Assays:
[1] = test system: soybean nodulation; experiment: Nodule numbers of soybean plants treated with KNO3 (incl. grafted plants); type: in vivo, Glycine max
Experimental: (§1) Soybean (Glycine max) lines used include the wild type Williams and its isogenic supernodulating nark mutant lines, nod4 and nod3-7 and the wild type Bragg and its isogenic hypernodulating nark mutant line, nts1116. Plants were grown in controlled glasshouse conditions (28° C./26° C. day/night, 16 hour day) in autoclaved pots and vermiculite where sterile growing conditions were required. Seeds requiring sterilisation were treated with 70% ethanol, 3% H2O2 for 1 min, followed by several rinses with water. Plants were watered as required with a modified nutrient solution lacking nitrogen (Herridge, 1982). Plants were inoculated with approximately OD600 0.01 Bradyrhizobium japonicum CB1809 or the corresponding NF mutant nodU grown in yeast-mannitol broth (YMB) at 28° for two days. For nitrate treatments, plants were watered with the indicated solutions of KNO3 every two days. For grafting experiments, reciprocal grafting was carried out 8 d after sowing and the graft unions were allowed to recover for 6 d before B. japonicum inoculation. Nodulation was scored three weeks after inoculation.
Soybean plants were treated with either 0, 2, 5, 10 or 15 mM KNO3 for 2 days prior to, and for 2 weeks following, rhizobia inoculation. The treated plants were then harvested simultaneously for RT-qPCR and nodule count studies. […]

[2] = test system: CLE30, CLE60 and CLE80 gene expression in soybean root; experiment: RT-qPCR of CLE gene expression in soybean roots after nitrogen source treatment; type: in vivo, Glycine max; conditions: for expression of CLE30 and CLE80 in roots / CLE60 expression in roots: 10 mM for two weeks; for expression of CLE30 and CLE80 in roots: relative to KCl control; for CLE60 expression in roots: relative to control
Experimental: FIG. 15. To test if CLE60 (GmNIC1) is induced by alternative nitrogen sources we treated soybeans with 10 mM solutions of the following chemicals for two weeks prior to harvesting root tissue to analyse gene expression: Ammonium Chloride (NH4Cl), Potassium Nitrate (KNO3) and Potassium Chloride control (KCl).
as §1
For gene expression analyses, tissue was snap frozen and homogenized in liquid nitrogen using a mortar and pestle. RNA was extracted using TRIzol reagent according to the manufacturer's instructions (Invitrogen). DNAse treatment (Fermentas, Ontario) was performed on 1 μg of RNA in the presence of MgCL2. cDNA was synthesised with SuperScript III (Invitrogen) from 0.5 μg DNAse treated RNA. RT-qPCR was conducted using an ABI 7900HT cycler in 384 well plates with SYBR green fluorescence detection. All reactions were performed in duplicate for at least three biological replicates using intron-spanning primers where possible and a target amplicon of approximately 100 bp (full primer sequences are included in Table 2). Gene expression values were calculated relative to ATP synthase after normalisation for PCR efficiency and plot correlation (R2) values of each primer pair as determined by LinRegPCR 7.5 (Ramakers et al., 2003).
In a preliminary study to determine if nitrate can induce the expression of the soybean CLE genes, root tissue was harvested after treatment with either 0 mM (water control) or 10 mM KNO3 for two weeks. […] A more thorough study to identify the induction of CLE60 expression by nitrate was subsequently performed using, root tissue harvested at 0, 8 or 24 h after the commencement of the above treatments.
Soybean plants were treated with either 0, 2, 5, 10 or 15 mM KNO3 for 2 days prior to, and for 2 weeks following, rhizobia inoculation. The treated plants were then harvested simultaneously for RT-qPCR and nodule count studies.

[3] = test system: Medicago truncatula nodulation; conditions: cited from earlier work
[4] = test system: soybean nodulation; experiment: Over-expression of CLE genes in transgenic soybean hairy roots, nodule number (Example 1); type: in vivo, Glycine max; conditions: for NARK/SUNN/HAR1 dependent inhibition / Systemic activity: Glycine max; for nodulation (nodule number) on over-expression: vs vector-only control
Experimental: as §1
The full length CDS of CLE30, CLE60 and CLE80 was directionally cloned into the pKANNIBAL vector for expression of RNAi constructs (Wesley et al., 2001). Pfu polymerase (Stratagene, La Jolla, Calif.) was used to amplify PCR products incorporating restriction nuclease sites from cDNA samples shown to express the target gene. XhoI/EcoRI (for) and KpnI (rev) restriction sites were included in the primer sequences depending on internal restriction sites of each gene (full primer sequences are included in Table 2). Likely clones were confirmed by direct DNA sequencing and capillary separation. Constructs were sub-cloned into p15SRK2 or pM1KCK1 integration vectors (A. Kereszt, unpublished) as a NotI fragment before tri-parental mating to introduce the constructs into Agrobacterium rhizogenes K599. For transgenic root verification in the CLE60 over-expression experiments the DsRed reporter was subcloned into pM1KCK1 from pHairyRed, which is a modified version of pCAMBIA (M-H Lin, P M Gresshoff, B J Ferguson, unpublished). Tri-parental mating was used to introduce DsRed into A. rhizogenes K599 carrying the CLE60 construct. A. rhizogenes were subsequently used for the induction of transgenic soybean hairy roots according to Kereszt et al (2007).
To determine if the soybean CLE peptides regulate nodulation in a NARK-dependent manner, a reverse-genetics approach using a hairy-root transformation system was used. Over-expression of a systemic Q signal would be expected to inhibit nodulation, even in non-transformed roots. To test this, the complete CDS of CLE30, CLE60 or CLE80 was cloned into the pKANNIBAL vector for the expression of efficient RNAi constructs (Wesley et al., 2001). However, to generate over-expressing constructs, the antisense construct was omitted and the Pdk intron of pKANNIBAL was left intact. Previous studies have shown the inclusion of an intron can lead to higher and more consistent expression levels in transgenic plants (Norris et al., 1993).
Tri-parental mating was used to integrate the constructs into Agrobacterium rhizogenes K599 which induces the formation of transgenic hairy roots in soybean (Kereszt et al., 2007).

[5] = nod4 supernodulation nark mutant plants
[6] = wild-type (Williams) soybean, transgenic hairy roots

## O=[N+]([O-])[O-].[K+] [KNO3, Potassium Nitrate]
[1]; 0, 2, 5, 10 or 15 mM KNO3, 2 weeks after inoculation
  nodule numbers with KNO3 concentration: reduced in an inverse manner
[1]; 5 mM or 10 mM KNO3, WT scion, wild-type rootstock compared to nod4 mutant rootstock
  nodule numbers of grafted plants: reduced significantly
[2]; 10 mM KNO3 for two weeks vs 0 mM water control
  CLE30 expression in roots: unchanged
[2]
  expression of CLE30 and CLE80 in roots: not that of CLE80 or CLE30
  CLE60 expression in roots: significantly induced expression of CLE60
[2]; 2 days prior to and 2 weeks following rhizobia inoculation
  KNO3 level at which CLE60 was significantly induced (as low as): 2 mM

## Cl.N [NH4Cl, Ammonium Chloride]
[2]
  expression of CLE30 and CLE80 in roots: did not affect expression
  CLE60 expression in roots: induced expression of CLE60

## CLE12: Medicago truncatula CLE peptide reported to reduce nodulation (Mortier et al., 2010) (LEGGSNIDSQRLLHELMVDRIKQKRSRTDLEDKAVPGDRLSPGGPNHIHN; UniProt G7ZZZ3 32-81, looked up)
[3]
  NARK/SUNN/HAR1 dependent inhibition: partial
  Systemic activity: yes

## CLE13: Medicago truncatula CLE peptide reported to reduce nodulation (Mortier et al., 2010) (LRDHPLIHKNIDSRSLLQKLRIHISNHKQVRDISGDRLSPAGPDPQHNGRSPPRK; UniProt G7JV15 30-84, looked up)
[3]
  NARK/SUNN/HAR1 dependent inhibition: partial
  Systemic activity: yes

B1: CLE60: Glycine max CLE protein, SEQ ID NO:6; nitrate induced CLE acting locally in the root (protein)
chain: MLEALGEMANAKQVLCLILLVLLFSKLESRSLEAFIEGKKTLAKGCSRELIEKSQLLKASFAKATTRFTNPRVSKRLSPGGPDQKHH
modifications: Glycine max
notes: nitrate induced CLE acting locally in the root
[4]
  NARK/SUNN/HAR1 dependent inhibition: yes
  Systemic activity: no
[4]; [5]
  nodulation (nodule number) on over-expression: no corresponding reduction in nodulation; also recorded: nodule numbers were not reduced
[4]; over-expression, wild-type soybean
  reduction in nodulation: ~50%
[4]; [6]
  nodulation (nodule number) on over-expression: only partially reduces nodulation; also recorded: reduced nodulation by approximately half; also recorded: nodules were reduced or partially eliminated

B2: CLE80: Glycine max CLE protein, SEQ ID NO:7; rhizobia inoculation induced CLE (protein)
chain: MGNTSATLVPILALIMFSTFFMTLQARSLHGHNPLFAHKKVVDIQNFLHKSGIHLSKRVRIPFGDDLPLAPADRLAPGGPDPQHNVRAPPRKP
modifications: Glycine max
[4]
  NARK/SUNN/HAR1 dependent inhibition: yes
  Systemic activity: yes
[4]; [5]
  nodulation (nodule number) on over-expression: no reduction in the nodule numbers; also recorded: complete lack of nodule inhibition; also recorded: nodule numbers were not reduced
[4]; [6]
  nodulation (nodule number) on over-expression: completely abolishes soybean nodulation; also recorded: completely eliminated nodulation; also recorded: eliminated nodulation completely; also recorded: nodules were eliminated
